Laboratory results reported in patent EP2255813A1, “Derivatives of ursodeoxycholic acid for the treatment of diarrhoea” (The Royal College of Surgeons in Ireland, priority 2009, dated 2010).

System: T84 cells
Test: Cl^- secretion measured as short-circuit current (Isc) across T84 cell monolayers in Ussing chambers
Format: cell-based
Description: Materials and Methods: Cultured T84 epithelial cells were employed as a model of the colonic epithelium. T84 cells were grown as monolayers on filter supports. When grown in this way T84 cells retain many of the characteristics of native intestinal epithelium and are widely considered as being among the best reductionist models for analysing intestinal epithelial secretory responses. T84 cell monolayers were mounted in Ussing chambers, and voltage-clamped to zero potential difference. Under these conditions, transepithelial ion transport can be measured as changes in short-circuit current (Isc) and such changes in Isc across T84 cells have been established as wholly due to Cl^- ion secretion. […]

Row | Compound | secretory responses to CCh (100µM and 500µM for 15 minutes before CCh (100µM) (Figure 7)) | secretory responses to FSK (100µM and 500µM for 15 minutes before FSK (10µM) (Figure 7)) | minimal effective concentration (Homo sapiens, responses to CCh, T84 cells (Figure 3B), read-out: concentration at which antisecretory effects are apparent)
1 | 6-methyl-UDCA [MUDCA] | inhibited secretory responses to both CCh and FSK | inhibited secretory responses to both CCh and FSK | 
2 | C[C@H](CCC(=O)O)[C@H]1CC[C@H]2[C@@H]3[C@@H](O)C[C@@H]4C[C@H](O)CC[C@]4(C)[C@H]3CC[C@]12C [UDCA, ursodeoxycholic acid] |  |  | 50 µM
